The values that follow come from patent publication US20260373165A1, “PHARMACEUTICAL COMBINATIONS AND COMPOSITIONS, AND METHODS OF USE THEREOF” (SHENZHEN HIGHTIDE BIOPHARMACEUTICAL LTD., priority 2022, published 2026).

Assay [1] in a line: Example 1: lean mass by MRI after 25 days. The format is in vivo, mouse (C57BL/6J male, 60% HFD DIO). The note with it: for lean mass (in words): after 25 days, relative to model control group G2; for Body weight / Lean (lean mass) / Lean ratio: mean, HTD1801 200 mpk, empagliflozin 10 mpk in last 2 weeks (300/15 mpk before); for Body weight: after 25 days of administration (Table 7); for Lean (lean mass) / Lean ratio: after 25 days of administration. The source says:
(§1) After 5-week-old C57BL/6J male mice were acclimatized for 1 week, the weight of each mouse was weighed, and the mice were randomly divided into a control group and a model group by taking the weight as a main index, where 12 mice in the control group were fed with common feed (CD), and the mice in the remaining model group were fed with 60% high-fat feed (60% HFD) for 10-12 weeks to construct a DIO obesity model, with the average body weight being not less than 40 g. The mice fed with 60% HFD were grabbed and acclimatized with a solvent for 3 days, where the acclimatization with a solvent was performed by oral gavage of 0.5% CMC-Na, twice daily.
The food intake, the body weight, the body fat ratio, and the insulin level of the mice were respectively measured, followed by fasting blood glucose level, and the mice were randomly grouped according to Table 3 by taking the body weight as an index, and the remaining ungrouped mice were euthanized. After grouping, each group of mice was administered according to Table 3, the day of administration was defined as DO, and the administration volume of each drug was determined based on the results obtained by the calculation of 5 μL/g× mouse body weight (g).
For the combined administration group, the total administration volume was the sum of the administration volumes of two single drugs, and the administration sequence and the administration time were kept consistent at each administration. The mice were continuously fed with high-fat feed during the administration period until the administration was finished. During administration, 2 food intakes were measured per week (difference in feed weights at an interval of 24 h was measured); each group of mice was weighed once daily; postprandial blood glucose levels were measured weekly; blood was collected from the tail tip on day 6 and day 20, respectively, so as to measure fasting blood glucose levels once (blood was collected after fasting from 8:00 am to […]); on day 25 of administration, the body fat ratio and the lean mass of each group of mice were measured by MRI (the measurement period was kept consistent with that before grouping); after 4 weeks of administration intervention (day 28), each group of mice was fasted for 6 h and subjected to OGTT (0 min, 15 min, 30 min, 60 min, 90 min, 120 min) to detect their blood glucose levels, and meanwhile subjected to blood sampling via submaxillary vein (0 min, 15 min, 30 min, about 30 μL of blood sampled each time), and then the blood plasma was separated for detecting the insulin level by ELISA, where the separated blood plasma was more than 10 μL; the next day (D29) at the end of administration was set as the test endpoint, and the mice were fasted for 6 h in the morning and subjected to fasting blood glucose level measurement; subsequently, the mice were euthanized with CO2, blood was collected from the heart of each mouse for analysis, and each group of mice was dissected; the liver and subcutaneous, epididymal and mesenteric fat was collected, photographed and weighed, respectively.
After 25 days of administration, the body weight, the Lean weight and the lean ratio of each animal in groups G1 to G5 were measured and averaged for each group, and the results are shown in Table 7 below, FIG. 9 and FIG. 10.

Assay [2] in a line: Example 1: food intake within 24 h. It is filed as in vivo, mouse (C57BL/6J male, 60% HFD DIO). The note with it: during administration period, vs model control group.
Text: as §1
The food intake, the body weight, the body fat ratio, and the insulin level of the mice were respectively measured, followed by fasting blood glucose level, and the mice were randomly grouped according to Table 3 by taking the body weight as an index, and the remaining ungrouped mice were euthanized. After grouping, each group of mice was administered according to Table 3, the day of administration was defined as DO, and the administration volume of each drug was determined based on the results obtained by the calculation of 5 μL/g× mouse body weight (g). […]

Regarding `OC[C@H]1O[C@@H](c2ccc(Cl)c(Cc3ccc(O[C@H]4CCOC4)cc3)c2)[C@H](O)[C@@H](O)[C@@H]1O` [Empagliflozin, empagliflozin], in assay [1], the “lean mass (in words)” value was “decreased”, the Body weight was 47.53 g, the “Lean (lean mass)” value is 5.17 g and the Lean ratio was found to be 10.92%. Besides, in assay [2], the “food intake within 24 h (in words)” value is given as “comparable to that of the model control group”.

Take `COc1ccc2cc3[n+](cc2c1OC)CCc1cc2c(cc1-3)OCO2.C[C@H](CCC(=O)[O-])[C@H]1CC[C@H]2[C@@H]3[C@@H](O)C[C@@H]4C[C@H](O)CC[C@]4(C)[C@H]3CC[C@]12C` [HTD1801, berberine ursodeoxycholate]: in assay [1], the “lean mass (in words)” value is listed as “increased”, the Body weight is 40.10 g, the “Lean (lean mass)” value is 7.50 g and the Lean ratio is given as 19.02%. Besides, in assay [2], the “food intake within 24 h (in words)” value was “lower than the food intake for the model control group”.
